Test results: paper PMC2962730 (Journal of neurochemistry, 2010)
Residue numbers refer to the chain shown, from its start.

Key:
hVAChT A321F [1] = biological target: T1, hVAChT A321F (Homo sapiens, UniProt Q16572, A321F); experiment: ACh equilibrium binding by competition against [3H]vesamicol
T1 sequence (Q16572 1-532 A321F): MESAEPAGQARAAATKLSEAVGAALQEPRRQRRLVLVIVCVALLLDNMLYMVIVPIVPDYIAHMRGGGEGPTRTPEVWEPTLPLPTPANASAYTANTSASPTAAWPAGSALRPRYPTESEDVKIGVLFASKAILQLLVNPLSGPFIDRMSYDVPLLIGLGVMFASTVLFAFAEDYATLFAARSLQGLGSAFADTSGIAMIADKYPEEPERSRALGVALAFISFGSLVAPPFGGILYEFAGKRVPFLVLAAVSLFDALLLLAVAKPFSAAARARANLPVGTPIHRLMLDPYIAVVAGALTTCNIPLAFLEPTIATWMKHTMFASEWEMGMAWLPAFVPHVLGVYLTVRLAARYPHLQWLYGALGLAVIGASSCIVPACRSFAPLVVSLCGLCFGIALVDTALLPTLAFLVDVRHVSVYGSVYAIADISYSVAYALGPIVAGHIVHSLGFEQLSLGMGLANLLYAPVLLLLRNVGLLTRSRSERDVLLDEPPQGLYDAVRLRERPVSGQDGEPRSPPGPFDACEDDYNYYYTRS

hVAChT A321F [2] = biological target: T1, hVAChT A321F; experiment: [3H]ACh transport; format: biochemical
hVAChT W325H = biological target: T2, hVAChT W325H (Homo sapiens, UniProt Q16572, W325H); experiment: [3H]ACh transport; format: biochemical
T2 sequence (Q16572 1-532 W325H): T1 sequence (Q16572 1-532 A321F) with F321A, W325H

hVAChT W331A = biological target: T3, hVAChT W331A (Homo sapiens, UniProt Q16572, W331A); experiment: [3H]vesamicol saturation binding; conditions: pH 7.4
T3 sequence (Q16572 1-532 W331A): T1 sequence (Q16572 1-532 A321F) with F321A, W331A

hVAChT C388A = biological target: T4, hVAChT C388A (Homo sapiens, UniProt Q16572, C388A); experiment: [3H]vesamicol saturation binding; conditions: pH 7.4
T4 sequence (Q16572 1-532 C388A): T1 sequence (Q16572 1-532 A321F) with F321A, C388A

VAChT F335A = conditions: ref Ojeda et al. (2004); cited from earlier work
hVAChT Y60W = biological target: T5, hVAChT Y60W (Homo sapiens, UniProt Q16572, Y60W); experiment: [3H]vesamicol saturation binding; conditions: pH 7.4
T5 sequence (Q16572 1-532 Y60W): T1 sequence (Q16572 1-532 A321F) with Y60W, F321A

[3] = read-out: KM, Michaelis-Menten constant for ACh transport, pH 7.4

## CC(=O)OCC[N+](C)(C)C [ACh, acetylcholine]
hVAChT A321F [1]
  Kd: 15 ± 2 mM
hVAChT A321F [1]; A321F hVAChT, pH 7.4
  FHA, fraction of the ACh sites that have high affinity: 0.90 ± 0.06
hVAChT A321F [2]; pH 7.4
  Vmax/Bmax, ACh transport normalized to Bmax: 6.0 ± 0.5 min⁻¹
hVAChT A321F [2]; [3]
  Km: 350 ± 100 µM
hVAChT W325H; pH 7.4
  Vmax/Bmax, ACh transport normalized to Bmax: 6.5 ± 1.1 min⁻¹
hVAChT W325H; [3]
  Km: 480 ± 170 µM

## O[C@@H]1CCCC[C@H]1N1CCC(c2ccccc2)CC1 (racemic) [vesamicol, ( )-trans-2-(4-phenylpiperidino)cyclohexanol]
hVAChT W331A
  Bmax, maximal specific [3H]vesamicol binding (VAChT expression level): 37 ± 2 pmol/mg
hVAChT C388A
  Bmax, maximal specific [3H]vesamicol binding (VAChT expression level): 59 ± 1 pmol/mg
VAChT F335A
  weaker binding of vesamicol: ~ 3 fold
hVAChT Y60W
  Bmax, maximal specific [3H]vesamicol binding (VAChT expression level): 34 ± 3 pmol/mg
